Tested on: HBsAg
Assay: HBsAg assay: inhibition of HBsAg in HepG2.2.15 cells (CLIA immunoassay of supernatant)
Format: cell-based, hepatitis B virus (HBV)
Details: Hepatitis B virus, HepG2.2.15, 144 h, read-out: sAg EC50, HepG2.2.15 cells; supernatant collected at day 6 after exposure; HBsAg chemiluminescence immunoassay
In short: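 HepG2.2.15 cells (30,000/well) exposed to serially diluted compound (0.5% DMSO) for 2–3 days, then re-dosed in fresh medium for 3–4 more days. On day 6, supernatant HBsAg quantified by chemiluminescence immunoassay; EC50 from dose-response curves. Viability measured separately by CellTiter-Glo.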

How did the EC50 turn out when `CCOc1c2c([nH]c(=O)c1C(=O)O)-c1cc(OC)c(OCCCOC)cc1CC2C(C)C` (stereo not shown) [Example 91, 4-Ethoxy-5-isopropyl-9-methoxy-8-(3-methoxypropoxy)-2-oxo-1,2,5,6-tetrahydrobenzo[h]quinoline-3-carboxylicacid] was run?
Its EC50 is 1700 nM.

`COCCCOc1cc2c(nc1OC)-c1[nH]c(=O)c(C(=O)O)c(OC)c1C(C(C)(C)C)C2` (stereo not shown) [Example 92, 5-(tert-Butyl)-4,9-dimethoxy-8-(3-methoxypropoxy)-2-oxo-1,2,5,6-tetrahydro-1,10-phenanthroline-3-carboxylic acid] was tested. Which EC50 did it give?
Its EC50 is 640 nM.

With `COCCCOc1cc2c(nc1C1CC1)-c1[nH]c(=O)c(C(=O)O)c(O)c1C(C(C)C)CO2` (stereo not shown) [Example 93, 2-Cyclopropyl-8-hydroxy-7-isopropyl-3-(3-methoxypropoxy)-10-oxo-6,7,10,11-tetrahydrooxepino[3,2-b:4,5-b′]dipyridine-9-carboxylic acid] as the compound, how does the EC50 read?
Its EC50 is 120 nM.

How did the EC50 turn out when `COCCCOc1cc2c(cc1C1CCOCC1)-c1[nH]c(=O)c(C(=O)O)c(O)c1[C@H](C(C)C)CO2` [Example 94, (S)-4-Hydroxy-5-isopropyl-9-(3-methoxypropoxy)-2-oxo-10-(tetrahydro-2H-pyran-4-yl)-1,2,5,6-tetrahydrobenzo[2,3]oxepino[4,5-b]pyridine-3-carboxylic acid] was run?
The EC50 was 730 nM.

— patent publication US11702427B2 (priority 2018, dated 2023)
